Literature values in patent publication US20090220426A1, “Biodegradable Inverted-Opal Structure, Method for Manufacturing and Using the Same, and Medical Implant Comprising the Biodegradable Inverted-Opal Structure” (KINKI UNIVERSITY, priority 2006, published 2009).

System: mouse

L.D.50 (oral mouse)	Structure (SMILES)
25,500 mg/kg	OCCCCCO [1,5-pentanediol]
25,500 mg/kg	OCC(CO)(CO)CO [pentaerythritol]
